# Tests used:
# [1] = tested on: SW620 colon cancer cells; experiment: Colony growth of SW620 colon cancer cells; format: cell-based
# Procedure: However, PQ3 has an opposite effect on mammary cancer cell lines. […] A summary of PQ-mediated GJIC activity and colony growth in breast and colon cancer cells is presented in Tables 1, 2, and 3, as well as FIGS. 10-13. In FIG. 10, SW620 cells were dosed for 24 hours with PQ1 at 100, 200, 300, and 500 nM. The gap junction activity was measured as a percent of control, as previously described. It was seen that all concentrations on PQ1 increased the gap junction activity in SW620 colon cancer cells as compared to the control. In FIG. 11, the effect of PQ1 on the expression of PKCγ was studied at concentrations of 100, 200, 300 and 500 nM PQ1 for 24 hours. It is seen in FIG. 11 that PQ1 has no effect on the expression of PKCγ at the levels tested. In FIGS. 12 and 13, the effect of PQ1 on the colony growth of SW620 colon cancer cells was measured with 1-100 nM PQ1 (FIG. 12) and 10 uM PQ1 (FIG. 13).
# Colony Growth Assay: T47D human breast cancer cells were treated with PQ1. Base agar plates were prepared containing 0.8% agar and 0.4% agar in Ham's F12. Cells (5×10^4 cells/33 mm2 well) were suspended in 100 μl of Ham's F12 with 0.4% agar and plated. These plates were maintained at 37° C. for 7 days and examined for the presence of colonies. Individual colonies of 40 um or greater were examined.
# [2] = tested on: human primary epithelial cells (MEC, normal cells); experiment: Scrape load/dye transfer GJIC assay, primary epithelial cells (MEC); format: cell-based; conditions: compared to its controls
# Procedure: Intercellular communication in many organs is maintained via GJIC. Several GJIC enhancers have been reported; however, an effective clinical drug targeting gap junction is not available at this time. The effect of PQ1 on the GJIC activity in T47D breast cancer cells was tested. […] Conversely, PQ1 has no effect on GJIC activity of human primary epithelial cells (MEC, normal cells) compared to its controls (data not shown). The distance of dye transfer from section cut to the farthest cells with dye was measured. […] MECs have uniform uptake of Lucifer yellow. This is due to the existing high level of gap junction activity of these normal cells.
# Gap Junction Activity. For scrape load/dye transfer (SL/DT) assay, cells were grown to 90% confluency on cover slips, dosed with 10, 50, 100 and 200 nM of TCDD for 40 minutes. After that cells were washed three times with PBS. The 2.5 μl of 1% (w/v) Lucifer yellow and 0.75% (w/v) of Rhodamine dextran was mixed and added in the center of the coverslip. Two cuts crossing each other in the center of the coverslip were made. After three minutes, cells were washed three times with PBS and incubated at 37° C. in tissue culture media for 20 minutes. The cells were then washed with PBS three times and fixed in 2.5% paraformaldehyde for 10 minutes. Cells were mounted on a slide, sealed and visualized under a fluorescence microscope at 10× objective.
structure (smiles),measurement,setting,value
"COc1cc(NCCCN)c2nccc(C)c2c1Oc1cccc(C(F)(F)F)c1.O=C(O)CCC(=O)O [PQ1, 6-Methoxy-8-[(3-aminopropyl)amino]-4-methyl-5-(3-trifluoromethylphenyloxy) quinoline succinic acid]",colony growth,[1]; 10 uM,completely inhibits
same,colony growth,[1]; 1-100 nM,no effect
same,GJIC activity,[2],no effect

# From US8809368B2, “Compounds affecting gap junction activity” (Kansas State University Research Foundation, priority 2006, dated 2014)
